These are literature values, as cited in article PMC9773016, “Strebluses E–H, four new stilbene-like derivatives from the stems of Streblus ilicifolius” (RSC Advances, 2022).

The term IC50 denotes the point on the concentration scale where inhibition reaches its midpoint.

The target of the series is Mushroom tyrosinase (Agaricus bisporus, UniProt C7FF04). Set-up: method as in PMID 34306141, PMID 33939585. Conditions: value from previous study of the same authors; read-out: tyrosinase inhibitory effect IC50.
Sequence of Mushroom tyrosinase (C7FF04 1-392): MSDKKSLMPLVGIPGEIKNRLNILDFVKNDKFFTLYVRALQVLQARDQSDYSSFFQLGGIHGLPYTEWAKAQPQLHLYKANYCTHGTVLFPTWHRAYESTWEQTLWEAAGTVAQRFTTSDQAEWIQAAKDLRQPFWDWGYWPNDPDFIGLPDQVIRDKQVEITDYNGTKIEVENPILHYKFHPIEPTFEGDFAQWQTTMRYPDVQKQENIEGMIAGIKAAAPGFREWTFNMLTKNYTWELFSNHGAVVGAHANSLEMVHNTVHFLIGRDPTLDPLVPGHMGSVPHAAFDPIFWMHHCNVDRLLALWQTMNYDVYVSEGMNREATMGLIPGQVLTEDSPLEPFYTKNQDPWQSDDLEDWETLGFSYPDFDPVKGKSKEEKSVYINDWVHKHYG

Regarding `CC(C)=CC[C@@]12OC(C)(C)O[C@@H]1CC(/C=C/c1ccc(O)cc1O)=CC2=O` [Streblus C], the half-maximal inhibitory concentration (IC50) is 10 nM.
